# In PMC9234961 (Journal of Medicinal Chemistry, 2022):
# Where two headings read alike, the source gives them in different places.
# Tests used:
# GR = target: T1, GR (Homo sapiens, UniProt P04150); assay: SAFETYScan NHR Protein Interaction, Agonist; format: cell-based
# T1 sequence (P04150 1-777): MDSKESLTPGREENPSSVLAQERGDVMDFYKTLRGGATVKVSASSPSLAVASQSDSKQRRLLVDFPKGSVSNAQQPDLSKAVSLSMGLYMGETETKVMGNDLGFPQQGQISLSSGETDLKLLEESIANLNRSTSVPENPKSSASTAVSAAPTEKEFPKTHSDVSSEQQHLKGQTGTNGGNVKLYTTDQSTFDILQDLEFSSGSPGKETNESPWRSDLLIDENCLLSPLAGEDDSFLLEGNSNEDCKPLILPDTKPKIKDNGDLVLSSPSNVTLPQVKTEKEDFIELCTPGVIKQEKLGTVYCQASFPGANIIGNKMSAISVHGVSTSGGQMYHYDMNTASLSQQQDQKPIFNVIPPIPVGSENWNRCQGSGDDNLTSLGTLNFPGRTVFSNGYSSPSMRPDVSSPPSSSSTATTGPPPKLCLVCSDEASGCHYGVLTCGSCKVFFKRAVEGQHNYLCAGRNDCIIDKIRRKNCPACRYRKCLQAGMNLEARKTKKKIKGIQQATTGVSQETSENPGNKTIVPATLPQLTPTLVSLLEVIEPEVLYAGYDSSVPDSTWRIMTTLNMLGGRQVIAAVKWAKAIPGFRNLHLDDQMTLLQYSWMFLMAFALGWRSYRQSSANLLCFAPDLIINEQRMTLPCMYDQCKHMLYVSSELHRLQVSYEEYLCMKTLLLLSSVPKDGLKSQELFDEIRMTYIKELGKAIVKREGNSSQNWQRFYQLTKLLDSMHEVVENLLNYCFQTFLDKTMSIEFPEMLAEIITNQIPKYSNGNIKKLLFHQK
# Text: Supplement jm1c02175_si_002.xlsx, sheet "SAFETYScan" | column: RC50 (uM); Max Response
# kinases (468) [1] = target: kinases (468) (Homo sapiens, UniProt O14757); conditions: CHEK1; 1000 nM
# kinases (468) [2] = target: kinases (468) (Homo sapiens, UniProt O75385); conditions: kinase ULK1 (Entrez ULK1); compound concentration 1000 nM
# kinases (468) [3] = target: kinases (468) (Homo sapiens, UniProt O95382); conditions: ASK2 (MAP3K6); 1000 nM
# kinases (468) [4] = target: kinases (468) (Homo sapiens, UniProt P10721); conditions: 1000 nM
# Chain of kinases (468) (Homo sapiens, UniProt P10721) (P10721 26-976): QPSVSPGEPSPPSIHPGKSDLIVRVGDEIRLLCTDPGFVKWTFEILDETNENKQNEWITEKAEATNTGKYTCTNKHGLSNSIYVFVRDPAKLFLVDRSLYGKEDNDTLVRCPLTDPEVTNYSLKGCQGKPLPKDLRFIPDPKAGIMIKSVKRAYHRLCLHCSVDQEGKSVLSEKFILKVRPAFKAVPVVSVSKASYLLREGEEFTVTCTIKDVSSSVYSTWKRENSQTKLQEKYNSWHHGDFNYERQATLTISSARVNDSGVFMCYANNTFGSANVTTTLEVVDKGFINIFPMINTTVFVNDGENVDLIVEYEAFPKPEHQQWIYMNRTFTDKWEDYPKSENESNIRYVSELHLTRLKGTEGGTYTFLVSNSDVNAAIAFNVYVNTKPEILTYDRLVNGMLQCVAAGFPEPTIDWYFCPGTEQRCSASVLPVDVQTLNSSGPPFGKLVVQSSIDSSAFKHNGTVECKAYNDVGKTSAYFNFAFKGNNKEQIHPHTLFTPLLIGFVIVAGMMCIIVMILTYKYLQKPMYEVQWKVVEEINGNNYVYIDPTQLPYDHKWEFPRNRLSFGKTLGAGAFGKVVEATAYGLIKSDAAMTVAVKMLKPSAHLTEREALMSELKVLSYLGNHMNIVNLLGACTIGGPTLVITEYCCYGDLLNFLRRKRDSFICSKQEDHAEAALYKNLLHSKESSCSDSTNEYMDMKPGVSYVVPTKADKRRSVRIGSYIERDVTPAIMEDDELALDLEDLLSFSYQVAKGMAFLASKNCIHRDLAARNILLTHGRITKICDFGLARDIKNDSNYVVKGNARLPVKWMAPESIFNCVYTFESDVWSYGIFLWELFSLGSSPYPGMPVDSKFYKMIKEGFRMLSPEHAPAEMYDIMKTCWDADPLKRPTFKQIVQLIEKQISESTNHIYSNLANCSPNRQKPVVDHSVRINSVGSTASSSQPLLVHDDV
# kinases (468) [5] = target: kinases (468) (Homo sapiens, UniProt P10721, T670I/V559D); conditions: KIT(V559D,T670I); 1000 nM
# Chain of kinases (468) (Homo sapiens, UniProt P10721, T670I/V559D) (P10721 26-976 V559D/T670I): as the sequence (P10721 26-976) above, with V534D, T645I counted along it
# kinases (468) [6] = target: kinases (468) (Homo sapiens, UniProt P11802); conditions: 1000 nM
# Chain of kinases (468) (Homo sapiens, UniProt P11802) (P11802 whole entry): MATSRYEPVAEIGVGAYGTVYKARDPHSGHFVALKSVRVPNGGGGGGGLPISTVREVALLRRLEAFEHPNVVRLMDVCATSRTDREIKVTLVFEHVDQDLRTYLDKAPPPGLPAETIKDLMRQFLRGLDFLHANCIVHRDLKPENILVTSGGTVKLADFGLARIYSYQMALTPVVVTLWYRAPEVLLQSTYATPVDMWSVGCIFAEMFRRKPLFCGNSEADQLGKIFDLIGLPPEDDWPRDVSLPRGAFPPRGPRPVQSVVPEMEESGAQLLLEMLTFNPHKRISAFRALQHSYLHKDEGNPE
# kinases (468) [7] = target: kinases (468) (Homo sapiens, UniProt P36888); conditions: 1000 nM
# Chain of kinases (468) (Homo sapiens, UniProt P36888) (P36888 27-993): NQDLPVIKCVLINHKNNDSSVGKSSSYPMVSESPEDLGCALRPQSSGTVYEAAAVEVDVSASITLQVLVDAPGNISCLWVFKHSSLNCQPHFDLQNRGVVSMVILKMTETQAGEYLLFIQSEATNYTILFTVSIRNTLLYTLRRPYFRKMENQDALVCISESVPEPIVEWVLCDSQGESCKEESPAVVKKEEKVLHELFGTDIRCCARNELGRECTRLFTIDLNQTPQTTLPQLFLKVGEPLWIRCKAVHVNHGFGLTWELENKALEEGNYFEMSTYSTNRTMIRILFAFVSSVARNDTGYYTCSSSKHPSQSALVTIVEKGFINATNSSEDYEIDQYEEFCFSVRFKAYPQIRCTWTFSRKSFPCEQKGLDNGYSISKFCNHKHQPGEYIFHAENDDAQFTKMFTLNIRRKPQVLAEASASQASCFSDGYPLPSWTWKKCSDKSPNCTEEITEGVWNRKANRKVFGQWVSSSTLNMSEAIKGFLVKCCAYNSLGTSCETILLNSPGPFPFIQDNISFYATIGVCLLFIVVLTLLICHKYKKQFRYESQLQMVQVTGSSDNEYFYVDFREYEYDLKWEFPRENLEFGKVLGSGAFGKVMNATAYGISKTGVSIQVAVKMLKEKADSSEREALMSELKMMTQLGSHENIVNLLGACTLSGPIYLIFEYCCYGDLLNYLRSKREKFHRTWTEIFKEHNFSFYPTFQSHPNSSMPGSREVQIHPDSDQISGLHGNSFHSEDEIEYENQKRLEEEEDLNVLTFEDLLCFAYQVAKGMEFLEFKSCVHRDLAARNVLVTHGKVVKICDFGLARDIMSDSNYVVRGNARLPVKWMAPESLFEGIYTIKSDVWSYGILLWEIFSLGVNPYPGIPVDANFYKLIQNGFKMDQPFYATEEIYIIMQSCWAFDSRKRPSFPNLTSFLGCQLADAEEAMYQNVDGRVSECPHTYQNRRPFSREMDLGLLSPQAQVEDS
# kinases (468) [8] = target: kinases (468) (Homo sapiens, UniProt P42336, H1047Y); conditions: PIK3CA(H1047Y); 1000 nM
# Chain of kinases (468) (Homo sapiens, UniProt P42336, H1047Y) (P42336 whole entry H1047Y): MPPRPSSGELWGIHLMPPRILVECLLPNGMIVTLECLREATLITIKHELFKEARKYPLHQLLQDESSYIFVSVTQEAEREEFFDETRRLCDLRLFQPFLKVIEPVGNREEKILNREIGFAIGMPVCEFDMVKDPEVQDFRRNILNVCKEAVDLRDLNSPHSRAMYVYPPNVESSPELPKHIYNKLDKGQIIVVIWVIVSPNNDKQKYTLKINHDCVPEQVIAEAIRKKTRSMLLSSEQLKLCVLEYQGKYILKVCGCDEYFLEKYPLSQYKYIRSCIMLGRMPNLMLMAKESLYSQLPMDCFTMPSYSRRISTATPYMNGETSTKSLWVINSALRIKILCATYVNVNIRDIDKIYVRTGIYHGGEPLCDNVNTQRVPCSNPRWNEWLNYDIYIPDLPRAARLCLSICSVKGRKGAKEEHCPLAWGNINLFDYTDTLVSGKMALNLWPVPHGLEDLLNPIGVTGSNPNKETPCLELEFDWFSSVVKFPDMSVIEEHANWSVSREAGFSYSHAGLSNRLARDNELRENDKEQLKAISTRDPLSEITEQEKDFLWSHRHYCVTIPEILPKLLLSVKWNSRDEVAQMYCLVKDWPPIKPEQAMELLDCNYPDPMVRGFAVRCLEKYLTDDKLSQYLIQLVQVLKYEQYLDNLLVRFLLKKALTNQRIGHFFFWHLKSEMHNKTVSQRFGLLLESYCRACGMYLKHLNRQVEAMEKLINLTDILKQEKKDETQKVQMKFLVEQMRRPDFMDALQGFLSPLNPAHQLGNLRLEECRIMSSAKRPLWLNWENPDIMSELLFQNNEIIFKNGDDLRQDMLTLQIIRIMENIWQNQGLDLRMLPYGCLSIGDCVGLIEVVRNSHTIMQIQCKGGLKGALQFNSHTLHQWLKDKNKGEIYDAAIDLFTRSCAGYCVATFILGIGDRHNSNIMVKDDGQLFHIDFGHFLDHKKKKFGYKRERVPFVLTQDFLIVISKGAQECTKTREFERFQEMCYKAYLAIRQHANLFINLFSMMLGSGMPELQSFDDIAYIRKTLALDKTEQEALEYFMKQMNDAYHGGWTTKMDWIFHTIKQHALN
# kinases (468) [9] = target: kinases (468) (Homo sapiens, UniProt P48736); conditions: PIK3CG; 1000 nM
# kinases (468) [10] = target: kinases (468) (Homo sapiens, UniProt P53350); conditions: PLK1; 1000 nM
# kinases (468) [11] = target: kinases (468) (Homo sapiens, UniProt P53779); conditions: JNK3 (MAPK10); 1000 nM
# kinases (468) [12] = target: kinases (468) (Homo sapiens, UniProt P54646); conditions: AMPK-alpha2 (PRKAA2); 1000 nM
# kinases (468) [13] = target: kinases (468) (Homo sapiens, UniProt Q16513); conditions: PKN2; 1000 nM
# Chain of kinases (468) (Homo sapiens, UniProt Q16513) (Q16513 whole entry): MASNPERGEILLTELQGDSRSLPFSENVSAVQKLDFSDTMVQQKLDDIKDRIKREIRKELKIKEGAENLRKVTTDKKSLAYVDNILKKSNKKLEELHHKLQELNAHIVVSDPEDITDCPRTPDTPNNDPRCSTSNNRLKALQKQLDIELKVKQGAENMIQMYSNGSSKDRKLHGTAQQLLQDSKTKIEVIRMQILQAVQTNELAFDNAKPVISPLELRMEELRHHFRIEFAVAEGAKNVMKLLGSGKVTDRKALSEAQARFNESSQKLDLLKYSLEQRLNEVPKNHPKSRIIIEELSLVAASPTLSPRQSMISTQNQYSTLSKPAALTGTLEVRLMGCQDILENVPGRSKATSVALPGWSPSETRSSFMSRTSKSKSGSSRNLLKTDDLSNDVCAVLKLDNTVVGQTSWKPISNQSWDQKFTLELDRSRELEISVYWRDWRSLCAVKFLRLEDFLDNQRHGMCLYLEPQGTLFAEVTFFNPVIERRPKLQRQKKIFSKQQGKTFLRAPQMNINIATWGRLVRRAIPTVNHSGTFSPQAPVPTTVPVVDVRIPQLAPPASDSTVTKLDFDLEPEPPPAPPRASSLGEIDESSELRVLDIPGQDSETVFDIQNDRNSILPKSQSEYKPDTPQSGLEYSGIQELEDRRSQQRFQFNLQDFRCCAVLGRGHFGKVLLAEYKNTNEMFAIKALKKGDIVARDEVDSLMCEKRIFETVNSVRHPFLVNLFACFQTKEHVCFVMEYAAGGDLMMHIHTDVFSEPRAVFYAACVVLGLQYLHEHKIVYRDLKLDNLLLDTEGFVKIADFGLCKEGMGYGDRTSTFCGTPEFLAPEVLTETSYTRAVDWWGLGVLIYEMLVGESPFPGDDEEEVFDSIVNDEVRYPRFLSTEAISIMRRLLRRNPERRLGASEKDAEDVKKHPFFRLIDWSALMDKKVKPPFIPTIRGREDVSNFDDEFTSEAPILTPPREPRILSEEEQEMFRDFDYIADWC
# kinases (468) [14] = target: kinases (468) (Homo sapiens, UniProt Q16816); conditions: PHKG1; 1000 nM
# kinases (468) [15] = target: kinases (468) (Homo sapiens, UniProt Q8IWQ3); conditions: BRSK2; 1000 nM
# Chain of kinases (468) (Homo sapiens, UniProt Q8IWQ3) (Q8IWQ3 whole entry): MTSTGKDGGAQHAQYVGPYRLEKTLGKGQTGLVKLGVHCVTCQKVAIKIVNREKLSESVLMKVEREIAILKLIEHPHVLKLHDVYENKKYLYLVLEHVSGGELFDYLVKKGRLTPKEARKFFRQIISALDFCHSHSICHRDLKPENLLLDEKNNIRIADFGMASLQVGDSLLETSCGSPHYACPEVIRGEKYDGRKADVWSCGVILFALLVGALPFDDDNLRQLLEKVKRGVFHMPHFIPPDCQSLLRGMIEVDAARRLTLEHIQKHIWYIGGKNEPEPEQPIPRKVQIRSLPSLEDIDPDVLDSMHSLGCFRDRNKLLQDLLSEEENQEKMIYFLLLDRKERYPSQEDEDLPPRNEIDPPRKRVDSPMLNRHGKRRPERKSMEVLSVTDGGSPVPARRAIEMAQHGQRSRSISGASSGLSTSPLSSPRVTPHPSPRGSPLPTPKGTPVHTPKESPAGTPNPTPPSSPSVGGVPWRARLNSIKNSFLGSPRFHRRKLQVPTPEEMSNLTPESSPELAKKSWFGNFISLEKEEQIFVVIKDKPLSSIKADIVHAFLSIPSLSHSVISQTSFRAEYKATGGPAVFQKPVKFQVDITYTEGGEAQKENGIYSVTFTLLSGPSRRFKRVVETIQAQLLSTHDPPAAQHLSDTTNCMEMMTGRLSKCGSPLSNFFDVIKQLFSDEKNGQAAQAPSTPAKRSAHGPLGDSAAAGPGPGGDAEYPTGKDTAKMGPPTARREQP
# kinases (468) [16] = target: kinases (468) (Homo sapiens, UniProt Q9NWZ3); conditions: IRAK4; 1000 nM
# kinases (468) [17] = target: kinases (468) (Homo sapiens, UniProt Q9P0L2); conditions: MARK1; 1000 nM
# kinases (468) [18] = target: kinases (468) (Homo sapiens, UniProt Q9UKI8); conditions: kinase TLK1 (Entrez TLK1); compound concentration 1000 nM
# kinases (468) [19] = target: kinases (468) (Homo sapiens, UniProt Q9UPZ9); conditions: ICK; 1000 nM
# kinases (468) [20] = target: kinases (468) (Homo sapiens, UniProt Q9UQB9); conditions: AURKC; 1000 nM
# kinases (468) [21] = target: kinases (468) (Homo sapiens, UniProt Q9Y5S2); conditions: MRCKB (CDC42BPB); 1000 nM
compound,measurement,setting,value
"C[C@H]1C[C@@H](O)CN(c2ncc(Cl)c(Nc3ccc4c(c3)c3c(c(=O)n4C)OCC(F)(F)[C@H](C4CC4)N3)n2)C1 [12a CCT373566, (S)-10-((5-Chloro-2-((3R,5S)-3-hydroxy-5-methylpiperidin-1-yl)pyrimidin-4-yl)amino)-2-cyclopropyl-3,3-difluoro-7-methyl-1,2,3,4-tetrahydro-[1,4]oxazepino[2,3-c]quinolin-6(7H)-one]",Emax,GR; read-out: Max Response,0.05%
same,EC50,GR; read-out: RC50 (EC50),> 10 µM
C[C@H]1C[C@@H](O)CN(c2ncc(Cl)c(Nc3ccc4c(c3)c3c(c(=O)n4C)OCC(F)(F)[C@H](C4CC4)N3)n2)C1 [CCT373566_9A],Percent Control,kinases (468) [1],100%
same,Percent Control,kinases (468) [2],93%
same,Percent Control,kinases (468) [3],98%
same,Percent Control,kinases (468) [4]; KIT-autoinhibited,90%
same,Percent Control,kinases (468) [4]; KIT,100%
same,Percent Control,kinases (468) [5],98%
same,Percent Control,kinases (468) [6]; CDK4-cyclinD1,94%
same,Percent Control,kinases (468) [6]; CDK4-cyclinD3,95%
same,Percent Control,kinases (468) [6]; CDK4,100%
same,Percent Control,kinases (468) [7]; FLT3-autoinhibited,98%
same,Percent Control,kinases (468) [7]; FLT3,99%
same,Percent Control,kinases (468) [8],94%
same,Percent Control,kinases (468) [9],98%
same,Percent Control,kinases (468) [10],83%
same,Percent Control,kinases (468) [11],87%
same,Percent Control,kinases (468) [12],100%
same,Percent Control,kinases (468) [13],100%
same,Percent Control,kinases (468) [14],97%
same,Percent Control,kinases (468) [15],100%
same,Percent Control,kinases (468) [16],80%
same,Percent Control,kinases (468) [17],100%
same,Percent Control,kinases (468) [18],87%
same,Percent Control,kinases (468) [19],100%
same,Percent Control,kinases (468) [20],100%
same,Percent Control,kinases (468) [21],100%
